Publication PMC7026418, “The kinase polypharmacology landscape of clinical PARP inhibitors” (Scientific Reports, 2020)
Read-outs that look alike come from different tables or passages of the source.

Key:
Assay in all cases: biochemical
Set-up in all cases: DiscoveRx KINOMEscan active site-directed competition binding; percent of control kinase bound to immobilised ligand
PAK2 = PAK2 (Homo sapiens, UniProt Q13177)
IRAK4 = biological target: T1, IRAK4 (Homo sapiens, UniProt Q9NWZ3)
T1 sequence (Q9NWZ3 1-460): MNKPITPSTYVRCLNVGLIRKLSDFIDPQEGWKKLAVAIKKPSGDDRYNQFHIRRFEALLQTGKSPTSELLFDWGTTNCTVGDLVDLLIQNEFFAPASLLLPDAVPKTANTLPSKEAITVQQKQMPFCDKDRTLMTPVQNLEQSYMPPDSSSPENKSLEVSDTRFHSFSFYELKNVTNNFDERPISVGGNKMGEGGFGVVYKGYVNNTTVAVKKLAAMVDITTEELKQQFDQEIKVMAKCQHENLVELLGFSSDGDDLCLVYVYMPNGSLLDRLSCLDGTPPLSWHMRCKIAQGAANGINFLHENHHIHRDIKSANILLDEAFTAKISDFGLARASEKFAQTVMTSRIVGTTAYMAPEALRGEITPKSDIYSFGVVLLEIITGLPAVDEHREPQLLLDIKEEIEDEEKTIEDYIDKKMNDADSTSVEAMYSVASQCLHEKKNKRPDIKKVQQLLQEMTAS

MINK = biological target: T2, MINK (Homo sapiens, UniProt Q8N4C8)
T2 construct: gene MINK1
T2 sequence (Q8N4C8 whole entry): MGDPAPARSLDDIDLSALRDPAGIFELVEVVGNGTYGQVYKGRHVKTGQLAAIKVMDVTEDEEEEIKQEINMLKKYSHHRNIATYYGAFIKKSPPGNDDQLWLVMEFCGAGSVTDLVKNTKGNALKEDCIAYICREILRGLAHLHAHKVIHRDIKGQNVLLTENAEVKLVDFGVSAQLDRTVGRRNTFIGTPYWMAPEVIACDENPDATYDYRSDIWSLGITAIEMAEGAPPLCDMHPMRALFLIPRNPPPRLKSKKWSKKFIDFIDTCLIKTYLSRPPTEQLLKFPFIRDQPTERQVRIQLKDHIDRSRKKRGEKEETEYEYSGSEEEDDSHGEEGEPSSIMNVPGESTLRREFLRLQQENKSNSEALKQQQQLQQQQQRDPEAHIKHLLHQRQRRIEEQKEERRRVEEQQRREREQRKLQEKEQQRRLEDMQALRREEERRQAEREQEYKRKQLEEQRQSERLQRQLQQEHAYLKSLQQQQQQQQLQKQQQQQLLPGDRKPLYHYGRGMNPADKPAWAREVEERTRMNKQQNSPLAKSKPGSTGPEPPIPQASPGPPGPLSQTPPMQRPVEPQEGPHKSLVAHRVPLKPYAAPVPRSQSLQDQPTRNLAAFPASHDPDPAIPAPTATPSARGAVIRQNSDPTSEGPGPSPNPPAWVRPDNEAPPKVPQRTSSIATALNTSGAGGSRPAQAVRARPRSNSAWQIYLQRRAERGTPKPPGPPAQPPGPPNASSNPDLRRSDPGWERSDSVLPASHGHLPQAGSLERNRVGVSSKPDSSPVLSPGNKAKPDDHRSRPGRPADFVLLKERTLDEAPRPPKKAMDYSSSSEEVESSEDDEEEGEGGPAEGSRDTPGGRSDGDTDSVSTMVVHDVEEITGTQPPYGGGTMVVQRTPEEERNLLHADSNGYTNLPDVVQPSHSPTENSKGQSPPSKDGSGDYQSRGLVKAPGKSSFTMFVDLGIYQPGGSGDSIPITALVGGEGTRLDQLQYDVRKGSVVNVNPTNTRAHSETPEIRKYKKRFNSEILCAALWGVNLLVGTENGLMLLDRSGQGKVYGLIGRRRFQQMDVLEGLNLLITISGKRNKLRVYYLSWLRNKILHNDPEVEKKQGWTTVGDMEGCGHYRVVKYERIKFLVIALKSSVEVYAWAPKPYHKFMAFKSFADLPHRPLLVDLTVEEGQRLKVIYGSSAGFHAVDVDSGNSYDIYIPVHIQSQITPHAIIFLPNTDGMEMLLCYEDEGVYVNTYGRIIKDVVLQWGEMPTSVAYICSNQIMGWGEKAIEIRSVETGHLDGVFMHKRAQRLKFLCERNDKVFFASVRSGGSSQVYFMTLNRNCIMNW

GRK3 = biological target: T3, GRK3 (Homo sapiens, UniProt P35626)
T3 sequence (P35626 1-688): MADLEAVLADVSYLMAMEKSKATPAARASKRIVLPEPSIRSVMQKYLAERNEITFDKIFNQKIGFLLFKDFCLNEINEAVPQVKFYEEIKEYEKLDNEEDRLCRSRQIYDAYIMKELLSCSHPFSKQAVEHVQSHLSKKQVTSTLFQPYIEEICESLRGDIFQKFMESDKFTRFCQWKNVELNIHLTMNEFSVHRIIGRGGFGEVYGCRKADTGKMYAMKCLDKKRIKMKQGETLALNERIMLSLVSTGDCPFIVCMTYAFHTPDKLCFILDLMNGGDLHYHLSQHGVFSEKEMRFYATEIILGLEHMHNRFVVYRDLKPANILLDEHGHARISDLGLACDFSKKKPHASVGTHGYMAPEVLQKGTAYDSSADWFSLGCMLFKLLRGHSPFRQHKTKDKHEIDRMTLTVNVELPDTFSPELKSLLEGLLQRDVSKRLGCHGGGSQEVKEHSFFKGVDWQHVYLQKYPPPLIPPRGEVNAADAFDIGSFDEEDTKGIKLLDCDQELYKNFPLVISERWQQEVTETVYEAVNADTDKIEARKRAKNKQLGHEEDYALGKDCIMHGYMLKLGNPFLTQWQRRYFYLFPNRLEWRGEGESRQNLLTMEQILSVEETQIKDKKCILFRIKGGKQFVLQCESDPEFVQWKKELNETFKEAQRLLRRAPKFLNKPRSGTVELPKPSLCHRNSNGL

FRK = FRK (Homo sapiens, UniProt P42685)
FRK, sequence (P42685 whole entry): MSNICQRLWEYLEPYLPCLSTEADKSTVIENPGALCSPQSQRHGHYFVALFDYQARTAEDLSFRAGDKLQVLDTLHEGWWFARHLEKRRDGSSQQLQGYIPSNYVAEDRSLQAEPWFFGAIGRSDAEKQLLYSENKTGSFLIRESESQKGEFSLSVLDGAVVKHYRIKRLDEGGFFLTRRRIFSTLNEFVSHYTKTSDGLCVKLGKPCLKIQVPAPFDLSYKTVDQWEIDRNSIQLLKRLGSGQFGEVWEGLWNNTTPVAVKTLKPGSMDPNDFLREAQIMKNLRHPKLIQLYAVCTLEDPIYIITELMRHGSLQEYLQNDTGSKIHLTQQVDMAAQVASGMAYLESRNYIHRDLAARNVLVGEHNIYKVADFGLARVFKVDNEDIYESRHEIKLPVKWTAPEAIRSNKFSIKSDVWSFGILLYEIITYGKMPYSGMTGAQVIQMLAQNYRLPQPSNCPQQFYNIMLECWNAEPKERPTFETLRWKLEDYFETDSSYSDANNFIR

ABL1-phosphorylated = biological target: T4, ABL1-phosphorylated (Homo sapiens, UniProt P00519)
T4 construct: phosphorylated
T4 sequence (P00519 whole entry): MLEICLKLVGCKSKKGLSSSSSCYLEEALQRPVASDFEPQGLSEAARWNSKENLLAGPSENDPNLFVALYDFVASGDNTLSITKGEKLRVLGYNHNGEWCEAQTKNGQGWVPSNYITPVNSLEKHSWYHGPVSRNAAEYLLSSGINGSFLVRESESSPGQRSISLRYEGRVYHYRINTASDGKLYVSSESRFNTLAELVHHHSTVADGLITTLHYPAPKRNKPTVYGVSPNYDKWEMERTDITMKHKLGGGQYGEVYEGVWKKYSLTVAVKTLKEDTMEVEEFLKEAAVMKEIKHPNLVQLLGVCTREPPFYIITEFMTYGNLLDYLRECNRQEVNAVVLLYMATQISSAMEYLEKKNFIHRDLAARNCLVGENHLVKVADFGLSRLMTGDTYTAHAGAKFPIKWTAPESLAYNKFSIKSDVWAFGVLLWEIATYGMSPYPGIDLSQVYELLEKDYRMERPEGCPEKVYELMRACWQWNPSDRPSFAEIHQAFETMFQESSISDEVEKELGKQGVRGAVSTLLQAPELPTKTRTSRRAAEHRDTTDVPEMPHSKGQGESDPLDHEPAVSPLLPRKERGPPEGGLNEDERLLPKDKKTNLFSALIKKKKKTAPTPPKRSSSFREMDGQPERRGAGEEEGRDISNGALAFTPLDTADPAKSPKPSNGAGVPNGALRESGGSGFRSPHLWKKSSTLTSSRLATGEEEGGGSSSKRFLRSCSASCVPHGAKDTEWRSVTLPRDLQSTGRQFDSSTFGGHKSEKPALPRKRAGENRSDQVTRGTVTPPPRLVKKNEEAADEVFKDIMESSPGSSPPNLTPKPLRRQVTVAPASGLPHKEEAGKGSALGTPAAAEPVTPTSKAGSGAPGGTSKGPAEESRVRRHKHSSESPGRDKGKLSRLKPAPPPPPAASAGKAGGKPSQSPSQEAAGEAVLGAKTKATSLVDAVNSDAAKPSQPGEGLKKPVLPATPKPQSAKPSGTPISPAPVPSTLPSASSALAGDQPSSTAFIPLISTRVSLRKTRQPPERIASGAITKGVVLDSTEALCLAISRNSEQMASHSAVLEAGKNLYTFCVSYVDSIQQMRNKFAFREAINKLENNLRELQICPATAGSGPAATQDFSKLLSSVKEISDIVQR

NEK1 = biological target: T5, NEK1 (Homo sapiens, UniProt Q96PY6)
T5 sequence (Q96PY6 1-1258): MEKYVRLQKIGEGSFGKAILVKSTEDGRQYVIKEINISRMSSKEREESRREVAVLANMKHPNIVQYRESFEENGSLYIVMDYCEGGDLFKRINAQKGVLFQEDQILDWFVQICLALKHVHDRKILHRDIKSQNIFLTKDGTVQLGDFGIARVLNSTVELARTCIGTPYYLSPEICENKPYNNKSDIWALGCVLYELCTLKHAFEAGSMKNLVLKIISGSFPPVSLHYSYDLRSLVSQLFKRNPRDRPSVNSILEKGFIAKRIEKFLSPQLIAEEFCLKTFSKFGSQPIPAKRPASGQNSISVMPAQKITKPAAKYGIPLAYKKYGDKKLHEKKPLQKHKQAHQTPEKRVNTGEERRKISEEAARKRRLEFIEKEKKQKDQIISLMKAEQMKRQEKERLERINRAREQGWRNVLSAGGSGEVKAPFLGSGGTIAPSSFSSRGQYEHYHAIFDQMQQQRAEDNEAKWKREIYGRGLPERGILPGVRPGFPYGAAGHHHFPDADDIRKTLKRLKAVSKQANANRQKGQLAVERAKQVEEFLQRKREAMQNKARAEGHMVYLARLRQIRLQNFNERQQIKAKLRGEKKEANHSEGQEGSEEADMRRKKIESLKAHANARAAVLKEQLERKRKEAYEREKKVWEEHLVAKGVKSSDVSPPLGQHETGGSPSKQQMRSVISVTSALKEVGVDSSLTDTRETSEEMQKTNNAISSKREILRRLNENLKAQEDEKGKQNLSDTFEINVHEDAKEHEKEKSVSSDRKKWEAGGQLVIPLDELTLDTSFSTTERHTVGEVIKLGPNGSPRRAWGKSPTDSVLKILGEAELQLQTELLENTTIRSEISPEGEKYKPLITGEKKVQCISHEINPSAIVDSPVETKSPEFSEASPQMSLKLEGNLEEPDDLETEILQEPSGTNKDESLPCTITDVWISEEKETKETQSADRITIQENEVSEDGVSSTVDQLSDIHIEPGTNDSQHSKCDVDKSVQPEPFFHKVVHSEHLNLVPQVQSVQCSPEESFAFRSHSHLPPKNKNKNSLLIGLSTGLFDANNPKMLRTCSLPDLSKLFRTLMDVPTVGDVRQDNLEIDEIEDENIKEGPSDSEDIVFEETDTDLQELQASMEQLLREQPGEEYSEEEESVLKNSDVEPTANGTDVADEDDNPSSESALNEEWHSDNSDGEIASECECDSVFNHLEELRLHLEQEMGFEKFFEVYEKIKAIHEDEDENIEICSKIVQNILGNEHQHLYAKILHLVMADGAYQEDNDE

[1] = read-out: Niraparib (MK-4827) / %Ctrl @ 10000nM
[2] = read-out: Olaparib / %Ctrl @ 10000nM
[3] = read-out: Rucaparib / %Ctrl @ 10000nM, binding competition, % of control
[4] = read-out: Talazoparib (BMN 673) / %Ctrl @ 10000nM

PAK2, sequence (Q13177 whole entry): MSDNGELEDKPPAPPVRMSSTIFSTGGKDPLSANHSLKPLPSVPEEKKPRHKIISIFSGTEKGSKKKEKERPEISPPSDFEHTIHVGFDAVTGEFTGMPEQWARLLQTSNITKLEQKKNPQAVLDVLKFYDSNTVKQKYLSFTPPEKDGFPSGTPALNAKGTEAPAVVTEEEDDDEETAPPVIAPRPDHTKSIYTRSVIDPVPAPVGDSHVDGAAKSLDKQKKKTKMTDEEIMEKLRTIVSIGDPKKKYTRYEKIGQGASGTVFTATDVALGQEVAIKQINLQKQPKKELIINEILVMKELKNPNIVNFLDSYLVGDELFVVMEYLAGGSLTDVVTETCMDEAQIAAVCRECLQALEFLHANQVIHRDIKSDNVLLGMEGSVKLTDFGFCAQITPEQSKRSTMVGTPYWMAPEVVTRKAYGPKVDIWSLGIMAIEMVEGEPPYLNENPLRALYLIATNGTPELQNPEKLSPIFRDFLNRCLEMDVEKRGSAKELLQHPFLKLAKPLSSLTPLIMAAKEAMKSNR

Structure (SMILES): NC(=O)c1cccc2cn(-c3ccc([C@@H]4CCCNC4)cc3)nc12 [Niraparib]
- percent of control binding at 10 µM (PAK2; [1]): 45%
- percent of control binding at 10 µM (IRAK4; [1]): 99%
- percent of control binding at 10 µM (MINK; [1]): 67%
- percent of control binding at 10 µM (GRK3; [1]): 95%
- percent of control binding at 10 µM (FRK; [1]): 91%
- percent of control binding at 10 µM (ABL1-phosphorylated; [1]): 80%
- percent of control binding at 10 µM (NEK1; [1]): 98%

Structure (SMILES): O=C(c1cc(Cc2n[nH]c(=O)c3ccccc23)ccc1F)N1CCN(C(=O)C2CC2)CC1 [Olaparib]
- percent of control binding at 10 µM (PAK2; [2]): 92%
- percent of control binding at 10 µM (IRAK4; [2]): 88%
- percent of control binding at 10 µM (MINK; [2]): 100%
- percent of control binding at 10 µM (GRK3; [2]): 82%
- percent of control binding at 10 µM (FRK; [2]): 90%
- percent of control binding at 10 µM (ABL1-phosphorylated; [2]): 98%
- percent of control binding at 10 µM (NEK1; [2]): 74%

Structure (SMILES): CNCc1ccc(-c2[nH]c3cc(F)cc4c3c2CCNC4=O)cc1 [Rucaparib]
- percent of control binding at 10 µM (PAK2; [3]): 31%
- percent of control binding at 10 µM (IRAK4; [3]): 81%
- percent of control binding at 10 µM (MINK; [3]): 29%
- percent of control binding at 10 µM (GRK3; [3]): 90%
- percent of control binding at 10 µM (FRK; [3]): 97%
- percent of control binding at 10 µM (ABL1-phosphorylated; [3]): 98%
- percent of control binding at 10 µM (NEK1; [3]): 90%

Structure (SMILES): Cn1ncnc1[C@H]1c2n[nH]c(=O)c3cc(F)cc(c23)N[C@@H]1c1ccc(F)cc1 [Talazoparib]
- percent of control binding at 10 µM (PAK2; [4]): 84%
- percent of control binding at 10 µM (IRAK4; [4]): 85%
- percent of control binding at 10 µM (MINK; [4]): 100%
- percent of control binding at 10 µM (GRK3; [4]): 81%
- percent of control binding at 10 µM (FRK; [4]): 85%
- percent of control binding at 10 µM (ABL1-phosphorylated; [4]): 100%
- percent of control binding at 10 µM (NEK1; [4]): 80%
